Results as given in patent US20230257372A1 (CHONG KUN DANG PHARMACEUTICAL CORP., priority 2020, published 2023).
pIC50: −log10 of the molar value. Read-outs that look alike come from different tables or passages of the source.

Tests used:
human recombinant HDAC1 = biological target: T1, human recombinant HDAC1 (Homo sapiens, UniProt Q13547); assay: HDAC1 enzyme activity inhibition (HDAC Fluorimetric Drug Discovery Kit); assay type: biochemical; conditions: read-out: HDAC1
T1 construct: purchased Enzo Life Science, Inc. BML-SE456
T1 sequence (Q13547 whole entry): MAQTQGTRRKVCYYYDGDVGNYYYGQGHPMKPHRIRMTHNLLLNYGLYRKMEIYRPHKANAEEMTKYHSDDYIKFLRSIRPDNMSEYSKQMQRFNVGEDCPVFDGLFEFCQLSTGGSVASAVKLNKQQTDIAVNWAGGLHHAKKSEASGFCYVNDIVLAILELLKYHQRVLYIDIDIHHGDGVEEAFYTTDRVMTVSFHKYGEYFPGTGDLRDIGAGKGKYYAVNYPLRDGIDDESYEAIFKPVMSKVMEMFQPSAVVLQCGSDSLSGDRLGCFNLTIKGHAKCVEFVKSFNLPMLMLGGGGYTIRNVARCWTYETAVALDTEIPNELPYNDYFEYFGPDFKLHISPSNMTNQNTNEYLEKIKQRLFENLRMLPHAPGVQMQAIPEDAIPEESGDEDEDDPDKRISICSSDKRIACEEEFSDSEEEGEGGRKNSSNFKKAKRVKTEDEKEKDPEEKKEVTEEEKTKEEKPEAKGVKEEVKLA
Procedure: (§1) An experiment was conducted to identify the selectivity of the compound represented by formula I of the present invention to HDAC6 through an experiment on HDAC1 and HDAC6 enzyme activity inhibition.
(§2) A 5-fold dilution of the compound was divided into a 96-well plate, after which […] of the enzyme and 10 μM of the substrate were inserted into each well and subjected to reaction at 30° C. for 60 minutes, such that Fluor de Lys® Developer II (BML-KI176) was inserted thereinto and subjected to reaction for 30 minutes and finished.

human recombinant HDAC6 = biological target: T2, human recombinant HDAC6 (Homo sapiens, UniProt Q9UBN7); assay: HDAC6 enzyme activity inhibition (HDAC Fluorimetric Drug Discovery Kit); assay type: biochemical
T2 construct: purchased Calbiochem Inc. 382180
T2 sequence (Q9UBN7 1-1215): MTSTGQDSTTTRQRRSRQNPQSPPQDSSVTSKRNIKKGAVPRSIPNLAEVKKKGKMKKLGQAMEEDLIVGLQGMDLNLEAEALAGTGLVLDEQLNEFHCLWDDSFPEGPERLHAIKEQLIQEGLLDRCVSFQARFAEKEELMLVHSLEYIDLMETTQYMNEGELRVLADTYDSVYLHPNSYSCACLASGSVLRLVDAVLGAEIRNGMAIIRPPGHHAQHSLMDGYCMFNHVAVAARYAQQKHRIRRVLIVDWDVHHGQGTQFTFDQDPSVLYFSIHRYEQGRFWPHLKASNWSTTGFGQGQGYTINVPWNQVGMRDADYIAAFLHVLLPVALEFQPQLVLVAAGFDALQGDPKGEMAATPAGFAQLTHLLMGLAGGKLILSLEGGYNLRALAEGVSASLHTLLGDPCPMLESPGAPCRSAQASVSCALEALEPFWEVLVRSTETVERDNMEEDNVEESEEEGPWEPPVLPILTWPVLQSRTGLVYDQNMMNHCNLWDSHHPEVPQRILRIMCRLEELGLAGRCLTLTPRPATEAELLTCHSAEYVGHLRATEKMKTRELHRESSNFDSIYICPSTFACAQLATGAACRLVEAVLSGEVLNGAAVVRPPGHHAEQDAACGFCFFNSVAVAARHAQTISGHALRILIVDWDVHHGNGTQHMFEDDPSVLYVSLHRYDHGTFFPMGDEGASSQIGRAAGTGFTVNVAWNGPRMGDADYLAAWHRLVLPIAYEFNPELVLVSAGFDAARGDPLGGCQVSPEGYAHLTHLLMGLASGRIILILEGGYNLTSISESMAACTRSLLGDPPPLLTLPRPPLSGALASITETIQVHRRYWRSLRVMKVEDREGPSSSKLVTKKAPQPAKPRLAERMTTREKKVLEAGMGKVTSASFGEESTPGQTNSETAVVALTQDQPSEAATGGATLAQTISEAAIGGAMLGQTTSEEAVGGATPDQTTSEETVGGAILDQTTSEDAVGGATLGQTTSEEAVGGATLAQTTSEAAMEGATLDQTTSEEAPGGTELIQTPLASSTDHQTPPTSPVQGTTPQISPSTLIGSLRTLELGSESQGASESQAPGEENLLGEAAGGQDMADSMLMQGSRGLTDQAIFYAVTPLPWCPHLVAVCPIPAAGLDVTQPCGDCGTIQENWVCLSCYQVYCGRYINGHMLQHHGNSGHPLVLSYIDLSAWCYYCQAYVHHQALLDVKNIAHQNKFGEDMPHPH
Procedure: as §1, §2

[1] = human recombinant HDAC1, IC50 calculated with GraphPad Prism
[2] = human recombinant HDAC6, IC50 calculated with GraphPad Prism
[3] = human recombinant HDAC1, Fluor de Lys substrate, 30° C. 60 minutes
[4] = human recombinant HDAC6, same protocol as HDAC1

Row | pIC50 (human recombinant HDAC1; [1]) | HDAC6 selectivity (fold) (human recombinant HDAC6; HDAC1 IC50 / HDAC6 IC50) | pIC50 (human recombinant HDAC6; [2]) | pIC50 (human recombinant HDAC1; [3]) | HDAC6 selectivity (fold) (human recombinant HDAC6; HDAC6 over HDAC1) | pIC50 (human recombinant HDAC6; [4]) | SMILES
1 |  |  |  | < 4.30 | 1567 | 7.50 | Fc1cc(-c2nnc(C(F)F)o2)ccc1Cn1cc(-c2ccnc(N3CCN(C4COC4)CC3)c2)nn1 [Compound 4636]
2 | < 4.30 | 1096 | 7.34 |  |  |  | CC(C)(C)OC(=O)Nc1cccc(-c2cn(Cc3ccc(-c4nnc(C(F)F)o4)cc3)nn2)c1 [Compound 3698, Tert-butyl (3-(1-(4-(5-(difluoromethyl)-1,3,4-oxadiazol-2-yl)benzyl)-1H-1,2,3-triazol-4-yl)phenyl)carbamate]
3 |  |  |  | < 4.30 | 628 | 7.10 | Fc1cc(-c2nnc(C(F)F)o2)cnc1Cn1cc(-c2ccccc2)nn1 [Compound 17347, 2-(difluoromethyl)-5-(5-fluoro-6-((4-phenyl-1H-1,2,3-triazol-1-yl)methyl)pyridin-3-yl)-1,3,4-oxadiazole]
4 |  |  |  | < 4.30 | 2777 | 7.74 | Fc1cc(-c2nnc(C(F)F)o2)ccc1Cn1cc(-c2cncc(-c3cn[nH]c3)c2)nn1 [Compound 17058, 2-(4-((4-(5-(1H-pyrazol-4-yl)pyridin-3-yl)-1H-1,2,3-triazol-1-yl)methyl)-3-fluorophenyl)-5-(difluoromethyl)-1,3,4-oxadiazole]
5 | < 4.30 | 1470 | 7.47 |  |  |  | Fc1cc(-c2nnc(C(F)F)o2)ccc1Cn1cc(-c2cccc(N3C[C@@H]4C[C@H]3CN4C3CCC3)c2)nn1 [Compound 4319, 2-(4-((4-(3-((1S, 4S)-5-cyclobutyl-2,5-diazabicyclo[2.2.1]heptan-2-yl)phenyl)-1H-1,2,3-triazol-1-yl)methyl)-3-fluorophenyl)-5-(difluoromethyl)-1,3,4-oxadiazole]
6 | < 4.30 | 150 | 6.48 |  |  |  | CC(=O)N1CCCC(c2cn(Cc3ccc(-c4nnc(C(F)F)o4)cn3)nn2)C1 (stereo not drawn) [Compound 4004, 1-(3-(1-((5-(5-(difluoromethyl)-1,3,4-oxadiazol-2-yl)pyridin-2-yl)methyl)-1H-1,2,3-triazol-4-yl)piperidin-1-yl)ethan-1-one]
7 |  |  |  | < 4.30 | 2032 | 7.61 | CCN1CCN(c2cccc(-c3cn(Cc4ccc(-c5nnc(C(F)F)o5)cc4F)nn3)n2)CC1 [Compound 17362, 2-(difluoromethyl)-5-(4-((4-(6-(4-ethylpiperazin-1-yl)pyridin-2-yl)-1H-1,2,3-triazol-1-yl)methyl)-3-fluorophenyl)-1,3,4-oxadiazole]
8 |  |  |  | < 4.30 | 1043 | 7.32 | Fc1cc(-c2nnc(C(F)F)o2)ccc1Cn1cc(-c2cncc(Br)c2)nn1 [Compound 16930, 2-(4-((4-(5-bromopyridin-3-yl)-1H-1,2,3-triazol-1-yl)methyl)-3-fluorophenyl)-5-(difluoromethyl)-1,3,4-oxadiazole]
9 | < 4.30 | 914 | 7.26 |  |  |  | CN(C)C(C)(C)C(=O)Nc1cccc(-c2cn(Cc3ccc(-c4nnc(C(F)F)o4)cn3)nn2)c1 [Compound 4231, N-(3-(1-((5-(5-(difluoromethyl)-1,3,4-oxadiazol-2-yl)pyridin-2-yl)methyl)-1H-1,2,3-triazol-4-yl)phenyl)-2-(dimethylamino)-2-methylpropanamide]

Further lines, the compound ahead of its results:

Row | SMILES | pIC50 (human recombinant HDAC1; [1]) | HDAC6 selectivity (fold) (human recombinant HDAC6; HDAC1 IC50 / HDAC6 IC50) | pIC50 (human recombinant HDAC6; [2]) | pIC50 (human recombinant HDAC1; [3]) | HDAC6 selectivity (fold) (human recombinant HDAC6; HDAC6 over HDAC1) | pIC50 (human recombinant HDAC6; [4])
10 | CN(C)CC(=O)Nc1cccc(-c2cn(Cc3ccc(-c4nnc(C(F)F)o4)cc3)nn2)c1 [Compound 4329, N-(3-(1-(4-(5-(difluoromethyl)-1,3,4-oxadiazol-2-yl)benzyl)-1H-1,2,3-triazol-4-yl)phenyl)-2-(dimethylamino)acetamide] | < 4.30 | 815 | 7.21 |  |  | 
11 | FC(F)c1nnc(-c2ccc(Cn3cc(C4(F)CCOC4)nn3)nc2)o1 (stereo not drawn) [Compound 4281, 2-(difluoromethyl)-5-(6-((4-(3-fluorotetrahydrofuran-3-yl)-1H-1,2,3-triazol-1-yl)methyl)pyridin-3-yl)-1,3,4-oxadiazole] | < 4.30 | 412 | 6.92 |  |  | 
12 | Fc1cc(-c2nnc(C(F)F)o2)ccc1Cn1cc(-c2ccc(CN3CC[C@@H](F)C3)s2)nn1 [Compound 17917] |  |  |  | < 4.30 | 881 | 7.25
13 | Fc1cc(-c2nnc(C(F)F)o2)ccc1Cn1cc(-c2ccc(CNC3COC3)cc2)nn1 [Compound 4469, N-(4-(1-(4-(5-(difluoromethyl)-1,3,4-oxadiazol-2-yl)-2-fluorobenzyl)-1H-1,2,3-triazol-4-yl)benzyl)oxetan-3-amine] | < 4.30 | 847 | 7.23 |  |  | 
14 | CN(C)CCN(C)C(=O)c1cccc(-c2cn(Cc3ccc(-c4nnc(C(F)F)o4)cn3)nn2)c1 [Compound 4449, 3-(1-((5-(5-(difluoromethyl)-1,3,4-oxadiazol-2-yl)pyridin-2-yl)methyl)-1H-1,2,3-triazol-4-yl)-N-(2-(dimethylamino)ethyl)-N-methylbenzamide] | < 4.30 | 3759 | 7.88 |  |  | 
15 | Fc1cc(-c2nnc(C(F)F)o2)ccc1Cn1cc(-c2cccc(N3C[C@@H]4C[C@H]3CN4)c2)nn1 [Compound 4316, 2-(4-((4-(3-((1S,4S)-2,5-diazabicyclo[2.2.1]heptan-2-yl)phenyl)-1H-1,2,3-triazol-1-yl)methyl)-3-fluorophenyl)-5-(difluoromethyl)-1,3,4-oxadiazole] | < 4.30 | 206 | 6.62 |  |  | 
16 | CC(C)N1CCN(c2cc(-c3cn(Cc4ccc(-c5nnc(C(F)F)o5)cc4)nn3)ccc2F)CC1 [Compound 4421, 2-(difluoromethyl)-5-(4-((4-(4-fluoro-3-(4-isopropylpiperazin-1-yl)phenyl)-1H-1,2,3-triazol-1-yl)methyl)phenyl)-1,3,4-oxadiazole] | < 4.30 | 202 | 6.61 |  |  | 
17 | CN(C)Cc1cccc(-c2cn(Cc3ccc(-c4nnc(C(F)F)o4)cn3)nn2)c1 [Compound 3915, 1-(3-(1-((5-(5-(difluoromethyl)-1,3,4-oxadiazol-2-yl)pyridin-2-yl)methyl)-1H-1,2,3-triazol-4-yl)phenyl)-N,N-dimethylmethanamine] | < 4.30 | 1308 | 7.42 |  |  | 
18 | COC(=O)N1CC(c2cn(Cc3ccc(-c4nnc(C(F)F)o4)cn3)nn2)C1 [Compound 3959, Methyl 3-(1-((5-(5-(difluoromethyl)-1,3,4-oxadiazol-2-yl)pyridin-2-yl)methyl)-1H-1,2,3-triazol-4-yl)azetidin-1-carboxylate] | < 4.30 | 209 | 6.62 |  |  | 
19 | CCN1CCN(c2cccc(-c3cn(Cc4ccc(-c5nnc(C(F)F)o5)cn4)nn3)c2)CC1 [Compound 3988, 2-(difluoromethyl)-5-(6-((4-(3-(4-ethylpiperazin-1-yl)phenyl)-1H-1,2,3-triazol-1-yl)methyl)pyridin-3-yl)-1,3,4-oxadiazole] | < 4.30 | 4716 | 7.97 |  |  | 
20 | CC(C)(N)C(=O)Nc1cccc(-c2cn(Cc3ccc(-c4nnc(C(F)F)o4)cn3)nn2)c1 [Compound 4497, 2-amino-N-(3-(1-((5-(5-(difluoromethyl)-1,3,4-oxadiazol-2-yl)pyridin-2-yl)methyl)-1H-1,2,3-triazol-4-yl)phenyl)-2-methylpropanamide] | < 4.30 | 3759 | 7.88 |  |  | 
